The term IC50 denotes the point on the concentration scale where inhibition reaches its midpoint. For orientation: half-life means the time needed for the level to fall by half in the phase considered. Higher therefore signals slow decline. One may read the AUC as concentration integrated over time. Low readings indicate less exposure, high ones more exposure. As a reminder, the Tmax is the time at which the peak concentration occurs.

Here are results for three molecules from ChEMBL document CHEMBL4725309, “Potent, non-covalent reversible BTK inhibitors with 8-amino-imidazo[1,5-a]pyrazine core featuring 3-position bicyclic ring substitutes” (Bioorg Med Chem Lett, 2020).

Data set [1] is filed under the species Homo sapiens. In words: Selectivity index, ratio of IC50 for FYN (unknown origin) to IC50 for recombinant full length BTK (unknown origin) expressed in baculovirus infected Sf9 cells.
For data set [2], the target named is T1, Tyrosine-protein kinase Tec (Homo sapiens, UniProt P42680).
T1 sequence (P42680 whole entry): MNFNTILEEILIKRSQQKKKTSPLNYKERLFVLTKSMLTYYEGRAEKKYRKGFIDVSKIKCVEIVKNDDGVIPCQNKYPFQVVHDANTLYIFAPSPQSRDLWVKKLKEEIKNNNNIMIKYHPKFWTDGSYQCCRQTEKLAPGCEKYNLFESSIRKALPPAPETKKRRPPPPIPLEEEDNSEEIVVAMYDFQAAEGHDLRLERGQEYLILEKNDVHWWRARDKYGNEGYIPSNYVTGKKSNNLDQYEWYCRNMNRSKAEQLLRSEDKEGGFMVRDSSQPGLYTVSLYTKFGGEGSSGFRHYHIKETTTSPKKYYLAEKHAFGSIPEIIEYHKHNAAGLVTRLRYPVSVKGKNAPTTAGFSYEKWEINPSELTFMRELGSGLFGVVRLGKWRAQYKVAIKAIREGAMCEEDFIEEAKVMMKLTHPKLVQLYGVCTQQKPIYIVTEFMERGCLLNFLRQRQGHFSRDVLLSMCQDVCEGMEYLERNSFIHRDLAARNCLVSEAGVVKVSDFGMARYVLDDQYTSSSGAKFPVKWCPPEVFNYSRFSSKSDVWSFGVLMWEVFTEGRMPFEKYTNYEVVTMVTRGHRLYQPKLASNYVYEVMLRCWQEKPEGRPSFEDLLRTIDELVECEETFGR
The experiment in a line: Inhibition of TEC (unknown origin).

The species entered for data set [3] is Homo sapiens. The experiment in a line: Selectivity index, ratio of IC50 for PTK6 (unknown origin) to IC50 for recombinant full length BTK (unknown origin) expressed in baculovirus infected Sf9 cells.
The species named for data set [4] is Homo sapiens. In words: Selectivity index, ratio of IC50 for BMX (unknown origin) to IC50 for recombinant full length BTK (unknown origin) expressed in baculovirus infected Sf9 cells.
A short description of data set [5]: Volume of distribution at steady state in Wistar Han rat at 2 mg/kg, iv. The data set is classed as ADME, organism-based. As to conditions: in vivo, read-out: Vdss.
Data set [6] can be described thus: Half life in Wistar Han rat at 2 mg/kg, iv. The note with it: in vivo. The data set is classed as ADME, organism-based.
For data set [7], the species on record is Homo sapiens. The experiment in a line: Selectivity index, ratio of IC50 for SRMS (unknown origin) to IC50 for recombinant full length BTK (unknown origin) expressed in baculovirus infected Sf9 cells.
Data set [8] is filed under the species Homo sapiens. The experiment in a line: Selectivity index, ratio of IC50 for SRC (unknown origin) to IC50 for recombinant full length BTK (unknown origin) expressed in baculovirus infected Sf9 cells.
Data set [9] concerns the target Tyrosine-protein kinase Srms (Homo sapiens, UniProt Q9H3Y6). In words: Inhibition of SRMS (unknown origin).
Data set [10] can be described thus: AUC in Wistar Han rat at 2 mg/kg, iv. It is filed as ADME, organism-based. Also on record: dose 2 mg/kg. The note with it: in vivo.
Data set [11] concerns the target Tyrosine-protein kinase Lck (Homo sapiens, UniProt P06239). In words: Inhibition of LCK (unknown origin).
For data set [12], the target named is Tyrosine-protein kinase Yes (Homo sapiens, UniProt P07947). The experiment in a line: Inhibition of YES1 (unknown origin).
Data set [13] concerns the target Tyrosine-protein kinase BTK (Homo sapiens, UniProt Q06187). In words: Inhibition of BTK in human PBMC assessed as reduction in cell surface CD69 expression preincubated for 1 hr followed by stimulation with goat anti-human IgM F(ab')2 for 18 hrs by immunostaining analysis. The data set is classed as tissue-based.
Data set [14] is filed under the species Homo sapiens. The experiment in a line: Selectivity index, ratio of IC50 for YES1 (unknown origin) to IC50 for recombinant full length BTK (unknown origin) expressed in baculovirus infected Sf9 cells.
Data set [15] is filed under the species Homo sapiens. In words: Selectivity index, ratio of IC50 for CSK (unknown origin) to IC50 for recombinant full length BTK (unknown origin) expressed in baculovirus infected Sf9 cells.
The target in data set [16] is T2, Tyrosine-protein kinase TXK (Homo sapiens, UniProt P42681).
T2 sequence (P42681 whole entry): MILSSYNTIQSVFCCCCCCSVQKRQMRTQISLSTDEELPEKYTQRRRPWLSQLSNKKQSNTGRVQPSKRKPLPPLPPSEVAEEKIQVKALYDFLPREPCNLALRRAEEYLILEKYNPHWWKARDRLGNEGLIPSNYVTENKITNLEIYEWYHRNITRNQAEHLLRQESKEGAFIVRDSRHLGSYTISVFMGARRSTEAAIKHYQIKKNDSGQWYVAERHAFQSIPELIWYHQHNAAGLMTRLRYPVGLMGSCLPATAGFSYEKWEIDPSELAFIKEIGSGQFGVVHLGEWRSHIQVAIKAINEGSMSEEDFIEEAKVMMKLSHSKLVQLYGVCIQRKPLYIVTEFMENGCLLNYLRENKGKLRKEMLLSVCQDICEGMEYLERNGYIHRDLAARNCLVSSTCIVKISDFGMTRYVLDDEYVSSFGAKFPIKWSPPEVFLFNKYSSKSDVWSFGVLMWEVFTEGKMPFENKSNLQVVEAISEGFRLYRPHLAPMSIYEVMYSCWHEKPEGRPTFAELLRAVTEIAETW
In words: Inhibition of TXK (unknown origin).

Data set [17] in a line: Tmax in Wistar Han rat at 5 mg/kg, po. It is filed as ADME, organism-based. As to conditions: in vivo.
In data set [18] the target is Protein-tyrosine kinase 6 (Homo sapiens, UniProt Q13882). In words: Inhibition of PTK6 (unknown origin).
The species named for data set [19] is Homo sapiens. In words: Selectivity index, ratio of IC50 for LCK (unknown origin) to IC50 for recombinant full length BTK (unknown origin) expressed in baculovirus infected Sf9 cells.
The target of data set [20] is T3, Cytoplasmic tyrosine-protein kinase BMX (Homo sapiens, UniProt P51813).
T3 sequence (P51813 whole entry): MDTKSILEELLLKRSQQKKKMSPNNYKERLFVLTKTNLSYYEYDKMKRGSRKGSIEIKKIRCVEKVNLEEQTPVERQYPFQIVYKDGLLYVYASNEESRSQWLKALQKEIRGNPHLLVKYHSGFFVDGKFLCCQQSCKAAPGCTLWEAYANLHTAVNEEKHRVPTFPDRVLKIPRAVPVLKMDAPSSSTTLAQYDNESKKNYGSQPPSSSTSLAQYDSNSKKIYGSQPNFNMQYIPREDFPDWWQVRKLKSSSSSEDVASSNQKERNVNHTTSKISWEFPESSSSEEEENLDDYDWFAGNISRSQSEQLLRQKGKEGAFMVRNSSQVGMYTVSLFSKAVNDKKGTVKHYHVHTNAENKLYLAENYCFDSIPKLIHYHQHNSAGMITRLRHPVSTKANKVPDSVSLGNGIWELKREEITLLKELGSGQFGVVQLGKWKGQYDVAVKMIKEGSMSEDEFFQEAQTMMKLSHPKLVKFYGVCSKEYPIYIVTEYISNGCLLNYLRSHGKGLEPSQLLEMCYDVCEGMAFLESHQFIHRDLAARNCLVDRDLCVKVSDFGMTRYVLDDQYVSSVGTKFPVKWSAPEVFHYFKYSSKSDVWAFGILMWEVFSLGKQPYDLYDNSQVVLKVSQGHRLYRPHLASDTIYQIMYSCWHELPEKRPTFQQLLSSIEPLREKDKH
In words: Inhibition of BMX (unknown origin).

Data set [21] addresses Tyrosine-protein kinase FRK (Homo sapiens, UniProt P42685). In words: Inhibition of FRK (unknown origin).

Tyrosine-protein kinase Yes, sequence (P07947 whole entry): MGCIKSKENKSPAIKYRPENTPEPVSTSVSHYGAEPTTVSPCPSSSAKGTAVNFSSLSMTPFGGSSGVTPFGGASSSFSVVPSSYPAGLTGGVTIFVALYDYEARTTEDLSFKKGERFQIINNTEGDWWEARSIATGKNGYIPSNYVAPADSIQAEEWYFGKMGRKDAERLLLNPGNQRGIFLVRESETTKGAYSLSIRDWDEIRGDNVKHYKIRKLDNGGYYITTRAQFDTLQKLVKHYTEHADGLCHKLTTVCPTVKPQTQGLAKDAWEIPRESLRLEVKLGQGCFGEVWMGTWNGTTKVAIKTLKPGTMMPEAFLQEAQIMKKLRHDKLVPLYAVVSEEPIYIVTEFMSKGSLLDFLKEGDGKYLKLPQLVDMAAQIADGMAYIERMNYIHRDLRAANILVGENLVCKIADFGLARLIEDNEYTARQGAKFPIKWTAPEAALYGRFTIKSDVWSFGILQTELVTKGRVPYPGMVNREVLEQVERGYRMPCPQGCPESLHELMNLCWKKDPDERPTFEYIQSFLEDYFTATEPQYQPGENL
Protein-tyrosine kinase 6, sequence (Q13882 whole entry): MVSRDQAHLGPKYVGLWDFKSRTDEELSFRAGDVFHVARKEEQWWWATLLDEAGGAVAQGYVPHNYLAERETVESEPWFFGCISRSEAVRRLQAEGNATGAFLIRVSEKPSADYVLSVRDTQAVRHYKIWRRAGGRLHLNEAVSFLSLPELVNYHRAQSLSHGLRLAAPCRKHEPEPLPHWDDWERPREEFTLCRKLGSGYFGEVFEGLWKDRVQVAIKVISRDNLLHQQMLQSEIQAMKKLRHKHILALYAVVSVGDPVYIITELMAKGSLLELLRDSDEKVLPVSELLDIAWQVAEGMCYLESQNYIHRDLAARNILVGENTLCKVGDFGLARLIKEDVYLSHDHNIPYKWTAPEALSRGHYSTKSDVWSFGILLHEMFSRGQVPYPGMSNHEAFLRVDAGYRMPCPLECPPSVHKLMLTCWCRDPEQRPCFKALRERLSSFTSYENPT
Tyrosine-protein kinase Lck, sequence (P06239 whole entry): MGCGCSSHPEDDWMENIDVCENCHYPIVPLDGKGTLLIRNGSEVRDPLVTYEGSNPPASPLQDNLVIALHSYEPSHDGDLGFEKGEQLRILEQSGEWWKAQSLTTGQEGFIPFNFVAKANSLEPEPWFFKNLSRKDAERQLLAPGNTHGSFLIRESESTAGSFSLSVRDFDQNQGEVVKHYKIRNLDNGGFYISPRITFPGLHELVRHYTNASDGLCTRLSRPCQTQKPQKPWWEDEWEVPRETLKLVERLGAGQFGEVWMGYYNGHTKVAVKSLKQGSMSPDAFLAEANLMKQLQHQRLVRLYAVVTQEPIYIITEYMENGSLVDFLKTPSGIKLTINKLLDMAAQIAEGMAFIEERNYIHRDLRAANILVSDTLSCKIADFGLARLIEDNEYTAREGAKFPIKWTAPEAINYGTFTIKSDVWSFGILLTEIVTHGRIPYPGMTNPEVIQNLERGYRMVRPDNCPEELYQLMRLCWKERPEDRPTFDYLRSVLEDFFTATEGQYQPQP
Tyrosine-protein kinase Srms, sequence (Q9H3Y6 whole entry): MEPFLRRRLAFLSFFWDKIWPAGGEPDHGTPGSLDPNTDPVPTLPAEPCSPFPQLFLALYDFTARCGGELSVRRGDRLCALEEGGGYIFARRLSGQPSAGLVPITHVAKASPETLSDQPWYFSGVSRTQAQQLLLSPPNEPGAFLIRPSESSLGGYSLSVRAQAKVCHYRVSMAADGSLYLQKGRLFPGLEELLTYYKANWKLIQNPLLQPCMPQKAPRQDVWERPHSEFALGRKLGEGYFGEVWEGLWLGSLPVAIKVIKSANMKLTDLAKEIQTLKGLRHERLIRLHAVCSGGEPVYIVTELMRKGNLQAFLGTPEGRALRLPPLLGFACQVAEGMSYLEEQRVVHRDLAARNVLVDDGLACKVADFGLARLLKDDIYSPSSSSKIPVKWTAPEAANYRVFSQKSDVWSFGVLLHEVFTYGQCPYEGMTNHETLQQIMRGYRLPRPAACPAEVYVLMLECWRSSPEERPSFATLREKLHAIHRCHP
Tyrosine-protein kinase BTK, sequence (Q06187 whole entry): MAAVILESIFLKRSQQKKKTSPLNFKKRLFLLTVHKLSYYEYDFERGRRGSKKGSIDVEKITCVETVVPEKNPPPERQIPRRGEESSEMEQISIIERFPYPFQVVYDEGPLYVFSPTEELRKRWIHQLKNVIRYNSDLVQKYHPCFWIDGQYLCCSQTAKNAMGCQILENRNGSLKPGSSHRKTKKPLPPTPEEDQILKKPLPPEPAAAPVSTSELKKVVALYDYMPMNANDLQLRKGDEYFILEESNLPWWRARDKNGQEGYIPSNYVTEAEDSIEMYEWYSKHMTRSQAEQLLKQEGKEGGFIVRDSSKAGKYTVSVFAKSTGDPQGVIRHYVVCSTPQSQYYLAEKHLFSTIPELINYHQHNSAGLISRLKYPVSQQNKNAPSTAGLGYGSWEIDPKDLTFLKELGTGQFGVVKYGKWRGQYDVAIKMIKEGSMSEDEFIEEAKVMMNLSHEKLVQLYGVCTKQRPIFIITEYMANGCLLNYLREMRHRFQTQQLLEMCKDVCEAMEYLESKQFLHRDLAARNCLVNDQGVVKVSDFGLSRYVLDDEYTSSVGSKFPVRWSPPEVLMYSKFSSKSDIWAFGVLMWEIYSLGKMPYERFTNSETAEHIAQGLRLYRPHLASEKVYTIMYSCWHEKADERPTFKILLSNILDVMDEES
Tyrosine-protein kinase FRK, sequence (P42685 whole entry): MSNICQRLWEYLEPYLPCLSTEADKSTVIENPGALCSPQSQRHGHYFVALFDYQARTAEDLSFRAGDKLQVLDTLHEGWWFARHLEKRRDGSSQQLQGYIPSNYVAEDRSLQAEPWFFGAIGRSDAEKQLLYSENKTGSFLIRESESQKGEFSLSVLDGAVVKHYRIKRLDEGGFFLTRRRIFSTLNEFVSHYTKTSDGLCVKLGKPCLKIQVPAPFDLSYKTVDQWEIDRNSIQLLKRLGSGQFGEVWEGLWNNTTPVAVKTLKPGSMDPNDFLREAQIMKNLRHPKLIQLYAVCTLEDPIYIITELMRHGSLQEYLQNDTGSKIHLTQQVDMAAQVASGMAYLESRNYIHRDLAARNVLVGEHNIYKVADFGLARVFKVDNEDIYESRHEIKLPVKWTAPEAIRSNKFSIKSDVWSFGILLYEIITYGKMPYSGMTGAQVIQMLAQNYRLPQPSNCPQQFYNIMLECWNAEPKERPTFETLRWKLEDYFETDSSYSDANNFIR

As for `CC1(C)OC(=O)N2C[C@H](c3nc(-c4ccc(C(=O)Nc5cc(C(F)(F)F)ccn5)cc4)c4c(N)nccn34)CC[C@H]21`, the Ratio IC50 is 1700 in the data set filed under Homo sapiens [1]; 200 in the data set listed under Homo sapiens [3]; 47 in the data set filed under Homo sapiens [4]; 67 in the data set listed under Homo sapiens [7]; 570 in the data set filed under Homo sapiens [8]; 250 in the data set filed under Homo sapiens [14]. Further, the Ratio IC50 in the data set listed under Homo sapiens [15] stood at 2900; in the data set filed under Homo sapiens [19] it was 110. For the same molecule, the IC50 in data set [2] was determined as 27 nM; in data set [9] it was 8 nM; in data set [11] it was 13 nM; in data set [12] it was 30 nM; in data set [13], 2.8 nM; in data set [16], 15 nM. In addition, the IC50 in [18] worked out at 24 nM; in [20], 5.6 nM; in [21] it was 36 nM. The Vd in data set [5] was determined as 5.6 L/kg. This molecule gave a half-life in data set [6] of 3.6 h. The same molecule registered an AUC in data set [10] of 2.3 µM·h. The Tmax in data set [17] is 2.5 h.

`Nc1nccn2c([C@@H]3CC[C@H]4COC(=O)N4C3)nc(-c3ccc(C(=O)Nc4cc(C(F)(F)F)ccn4)cc3)c12`: the Ratio IC50 in the data set filed under Homo sapiens [1] is 219; in the data set listed under Homo sapiens [3], 600; in the data set listed under Homo sapiens [4], 157; in the data set listed under Homo sapiens [7] it was 169; in the data set filed under Homo sapiens [8], 1110; in the data set listed under Homo sapiens [14], 420. Also, the Ratio IC50 in the data set filed under Homo sapiens [15] worked out at 3500; in the data set filed under Homo sapiens [19], 132. For the same molecule, the IC50 in data set [2] was 92 nM; in [9], 14 nM; in data set [11], 11 nM; in data set [12], 35 nM; in data set [13], 5.8 nM; in data set [16] it was 46 nM. The figures for the IC50 in [18], in data set [20] and in data set [21] were 50 nM, 13 nM and 46 nM, respectively. Moreover, the Vd in [5] is 1.2 L/kg. The half-life in data set [6] was 5.1 h. The same molecule showed an AUC in [10] of 5.1 µM·h. The Tmax in [17] amounted to 0.25 h.

Take `Nc1nccn2c([C@@H]3CC[C@H]4CCC(=O)N4C3)nc(-c3ccc(C(=O)Nc4cc(C(F)(F)F)ccn4)cc3)c12`: the Ratio IC50 was 870 in the data set listed under Homo sapiens [1]; 420 in the data set listed under Homo sapiens [3]; 110 in the data set filed under Homo sapiens [4]; 91 in the data set listed under Homo sapiens [7]; 330 in the data set filed under Homo sapiens [8]; 120 in the data set filed under Homo sapiens [14]. Moreover, the Ratio IC50 came out at 1620 in the data set filed under Homo sapiens [15] and 59 in the data set filed under Homo sapiens [19]. Further, the IC50 was 63 nM in data set [2]; 9.1 nM in data set [9]; 5.9 nM in data set [11]; 12 nM in [12]; 2.5 nM in data set [13]; 33 nM in data set [16]. Also, the values for the IC50 in data set [18], in data set [20] and in [21] were 42 nM, 11 nM and 34 nM, respectively. Moreover, the Vd in [5] came to 0.78 L/kg. The same molecule had a half-life in [6] of 2.8 h. Further, the exposure (AUC) in data set [10] came to 7.8 µM·h. In [17], the Tmax worked out at 0.75 h.
